Assay results as given in US4091006A, “Esters of 3-hydroxyindone compounds” (priority 1975, dated 1978).

What was measured:
two-spotted mite = assay: Small scale field tests, mite control on Tendergreen bean plants; type: in vivo, Tetranychus urticae (Koch)
Procedure: Selected enol ester compositions were evaluated in small scale field tests to determine whether the excellent miticidal properties observed in greenhouse testing would be obtained under actual conditions of field use.
In Test I 500 ppm aqueous dispersions were prepared as described above. In tests II and III various dilutions of the test compounds ranging from 125 ppm to 1000 ppm were prepared and used. In each case the test dispersions were applied to a minimum of two replicate test plots measuring five feet in length and containing healthy young Tendergreen bean plants which had previously been infested with two-spotted mite (Tetranychus urticae (Koch)). Dispersions of the test compounds at each concentration level were applied to individual replicate plots using 1/2 gallon garden sprayers equipped with spray nozzles to apply approximately 250 ml. of test solution to each replicate. The effectiveness of the treatment was determined at intervals following application, by microscopic examination of five leaves selected at random from each replicate plot. The degree of effectiveness for each leaf was rated on a scale of from 1 to 5 with 1 indicating no control in reference to a standard sprayed with a mixture of solution less test compound and 5 indicating complete control. The results obtained from inspection of sample leaves were then averaged to give a numerical indication of the degree of control for each compound tested at the concentration applied.

[1] = test system: egg of the two-spotted mite; assay: Mite Ovicide Test; type: in vivo, Tetranychus urticae (Koch); design: key to Mite Ova rating: 1: no mortality; 3: an approximately 50% mortality; 5: 100% mortality; details: spray on eggs, 4 days
From the text: (§1) The test procedures were as follows:
The plants were allowed to dry thoroughly.
(§2) Compositions were rated on the basis of percent kill with a rating of 1 indicating no mortality; 3 signifying an approximately 50% mortality and 5 indicating 100% mortality at the indicated dosage.

[2] = test system: Perennial rye grass, crabgrass, red root pigweed, mustard; assay: Preliminary Herbicide Seed Germination Test; details: each rated 1 (no injury) to 5 (no seedlings emerged)
From the text: The thus-prepared stock suspension contained 0.5 percent by weight of compound. The test concentrations employed in the tests described hereinbelow were obtained by diluting the stock suspension with water. The test procedures were as follows:
The following seeds were used in this test:
Crabgrass -- Digitaria san-
Mustard -- Brassica pincea var.
Each of above mixtures is rolled separately in 5 gallon containers for approximately one-half hour on ball mill to insure uniform mixing of seeds and soil. For each compound four 3-inch pots are filled with soil to within 11/2 inches of top of pots. To 2 of these pots are added 70 cc. of Mixture I. To the remaining 2 pots are added 70 cc. of Mixture II. The seed-soil mixture is tamped firmly, and the pots are removed to the greenhouse and watered lightly. About 2 hours after planting, 25 milliliters of the test formulation were added to each of 2 pots for each soil-seed mixture; i.e., one replicate of each seed mixture per concentration. An equal volume of a water solution containing acetone and an emulsifier in the same concentration as the herbicidal mixture but without the candidate herbicide is also added to each of the soil-seed mixtures. These pots are used as check or control units. The test compounds are formulated by standard procedure of solution in acetone, addition of an emulsifier, and dilution with water. Tests were conducted on all compositions at low concentration (100 ppm.). Certain compositions were also tested at high concentration (1000 ppm). The pots were held in the greenhouse and watered lightly until results were taken. Ten to twelve days after application of chemical, injury is noted for each species by comparing treated vs. untreated pots. Ratings are made at both the high and the low concentrations (1000 ppm and 100 ppm) according to the following designations:
4 = few seedlings emerged and/or very severe stunting
3 = moderate reduction in stand and/or moderate stunting
2 = very slight reduction in stand and/or slight stunting
1 = no injury; seedlings appear no different with respect to stand or growth than untreated controls
Accordingly, the maximum rating for one test seed species tested at both high and low concentration is 10 and the maximum possible total preemergence rating is 40 (10 for each of the four test seed species). […] In some tests the crabgrass experiment was omitted. In these tests the maximum total rating for species tested at both high and low concentrations is 30 and 15 for species tested only at low concentrations.

[3] = test system: adults and nymphal stages of the two-spotted mite; assay: Mite Foliage Spray Test; type: in vivo, Tetranychus urticae (Koch); design: key: 1: no mortality; 3: an approximately 50% mortality; 5: 100% mortality; details: 4 days
From the text: as §1, §2

[4] = rating/maximum 40: 100 and 1000 ppm, four species, 10-12 days
[5] = rating/maximum 20: 100 ppm only, four species
[6] = rating/maximum 30: 100 and 1000 ppm, crabgrass omitted
[7] = rating/maximum 15: 100 ppm only, crabgrass omitted

Row | Compound | Mite Ova rating [1] | Herbicide (total preemergence rating) [2, 4] | Mite Adult rating [3] | Herbicide (total preemergence rating) [2, 5] | other results
1 | O=C1c2ccccc2C(=O)C1c1c(Cl)cccc1Cl [Compound B, 2-(2',6'-dichlorophenyl)-1,3-indandione, reference compound] | – | – | – | – | Average mite control rating, 1st Reading (two-spotted mite; Test I, 500 ppm, 4 days, scale 1 (no control) to 5 (complete control)): 1.5; Average mite control rating, 2nd Reading (two-spotted mite; Test I, 500 ppm, 8 days, scale 1 to 5): 2.0; Average mite control rating, 1st Reading (two-spotted mite; Test II, 250 ppm, 3 days, scale 1 to 5): 3.7; Average mite control rating, 2nd Reading (two-spotted mite; Test II, 250 ppm, 7 days, scale 1 to 5): 2.3; Average mite control rating, 1st Reading (two-spotted mite; Test II, 500 ppm, 3 days, scale 1 to 5): 3.0; Average mite control rating, 2nd Reading (two-spotted mite; Test II, 500 ppm, 7 days, scale 1 to 5): 3.3; Average mite control rating, 1st Reading (two-spotted mite; Test II, 1000 ppm, 3 days, scale 1 to 5): 2.0; Average mite control rating, 2nd Reading (two-spotted mite; Test II, 1000 ppm, 7 days, scale 1 to 5): 3.3
2 | Cc1cccc(Cl)c1C1=C(OC(=O)C(C)(C)C)c2ccccc2C1=O [2-(2'-Chloro-6'-methylphenyl)-3-(pivaloyloxy)indone] | 5 (100% mortality) | 33/40 | 5 (100% mortality) | – | –
3 | Cc1cc(C)c(C2=C(OC(=O)c3ccccc3)c3ccccc3C2=O)c(C)c1 [3-Benzoxyloxy-2-(2',4',6'-trimethylphenyl)indone] | 5 (100% mortality) | 31/40 | 5 (100% mortality) | – | –
4 | Cc1ccc(C(=O)OC2=C(c3c(Cl)cccc3Cl)C(=O)c3ccccc32)c(C)c1 [3-(2,4-Dimethylbenzoyloxy)-2-(2',6'-dichlorophenyl)indone] | 3 (an approximately 50% mortality) | – | 1 | 5/20 | –
5 | Cc1cccc(C(=O)OC2=C(c3c(C)cc(C)cc3C)C(=O)c3ccccc32)c1 [3-(3-Methylbenzoyloxy)-2-(2',4',6'-trimethylphenyl)indone] | 5 (100% mortality) | 26/40 | 5 (100% mortality) | – | –
6 | O=C(OC1=C(c2c(Cl)cccc2Cl)C(=O)c2ccccc21)c1cccc([N+](=O)[O-])c1 [3-(3-Nitrobenzoyloxy)-2-(2',6'-dichlorophenyl)indone] | 5 (100% mortality) | – | 5 (100% mortality) | – | Herbicide (total preemergence rating) [2, 6]: 26/30
7 | COc1cc(C)c(C)c(C)c1C1=C(OC(=O)C(C)(C)C)c2ccccc2C1=O [3-(Pivaloyloxy)-2-(6'-methoxy-2',3',4'-trimethylphenyl)indone] | 1 | 16/40 | 1 | – | –
8 | CSCC(=O)OC1=C(c2c(C)cc(C)cc2C)C(=O)c2ccccc21 [2-(2',4',6'-Trimethylphenyl)-3-(methylthioacetoxy)indone] | 5 (100% mortality) | – | 5 (100% mortality) | 19/20 | –
9 | COc1ccccc1C1=C(OC(=O)C(C)(C)C)c2ccccc2C1=O [2-(2'-Methoxyphenyl)-3-(pivaloyloxy)indone] | 1 | 8/40 | 1 | – | –
10 | 2-(2',6'-Dichlorophenyl)-5(6)-methyl-3-(pivaloyloxy)indone | 5 (100% mortality) | 24/40 | 5 (100% mortality) | – | –
11 | CCCCC(CC)C(=O)OC1=C(c2ccccc2F)C(=O)c2ccccc21 (centres unmarked) [3-(2-Ethylhexanoyloxy)-2-(2'-fluorophenyl)indone] | 5 (100% mortality) | – | 3 (an approximately 50% mortality) | 4/20 | –
12 | Cc1cc(C)c(C2=C(OC(=O)N3CCCCC3)c3ccccc3C2=O)c(C)c1 [2-(2',4',6'-Trimethylphenyl)-3-(piperdinocarbonyloxy)indone] | 3 (an approximately 50% mortality) | – | 1 | 4/20 | –
13 | COc1cccc(OC)c1C(=O)OC1=C(c2c(C)cc(C)cc2C)C(=O)c2ccccc21 [3-(2,6-Dimethoxybenzoyloxy)-2-(2',4',6'-trimethylphenyl)indone] | 1 | – | 1 | 4/20 | –
14 | Cc1cc(C)c(C2=C(OC(=O)Cc3ccccc3)c3ccccc3C2=O)c(C)c1 [2-(2',4',6'-Trimethylphenyl)-3-(phenylacetoxy)indone] | 5 (100% mortality) | – | 5 (100% mortality) | 19/20 | –
15 | Cc1cc(C)c(C2=C(OC(=O)c3c(Cl)ccc(Cl)c3Cl)c3ccccc3C2=O)c(C)c1 [3-(2,3,6-Trichlorobenzoyloxy)-2-(2',4',6'-trimethylphenyl)indone] | 3 (an approximately 50% mortality) | 21/40 | 1 | – | –
16 | Cc1ccccc1C(=O)OC1=C(c2c(Cl)cccc2Cl)C(=O)c2ccccc21 [3-(2-Methylbenzoyloxy)-2-(2',6'-dichlorophenyl)indone] | 5 (100% mortality) | 31/40 | 5 (100% mortality) | – | –
17 | CC(C)(C)C(=O)OC1=C(c2ccc(Cl)cc2)C(=O)c2ccccc21 [2-(4'-Chlorophenyl)-3-(pivaloyloxy)indone] | 1 | – | 1 | 4/20 | –
18 | CCc1cccc(C)c1C1=C(OC(=O)C(C)(C)C)c2ccccc2C1=O [2-(2'-Ethyl-6'-methylphenyl)-3-(pivaloyloxy)indone] | 5 (100% mortality) | – | 5 (100% mortality) | – | Herbicide (total preemergence rating) [2, 7]: 14/15
19 | Cc1cc(C)c(C2=C(OC(=O)c3ccc([N+](=O)[O-])cc3)c3ccccc3C2=O)c(C)c1 [3-(4-Nitrobenzoyloxy)-2-(2',4',6'-trimethylphenyl)indone] | 5 (100% mortality) | – | 5 (100% mortality) | – | Herbicide (total preemergence rating) [2, 6]: 26/30
20 | COc1cccc(OC)c1C(=O)OC1=C(c2c(Cl)cccc2Cl)C(=O)c2ccccc21 [3-(2,6-Dimethoxybenzoyloxy)-2-(2',6'-dichlorophenyl)indone] | 1 | – | 1 | – | Herbicide (total preemergence rating) [2, 7]: 12/15
21 | Cc1cc(C)c(C2=C(OC(=O)c3cccc([N+](=O)[O-])c3)c3ccccc3C2=O)c(C)c1 [3-(3-Nitrobenzoyloxy)-2-(2',4',6'-trimethylphenyl)indone] | 5 (100% mortality) | – | 5 (100% mortality) | – | Herbicide (total preemergence rating) [2, 6]: 28/30
22 | 2-(2',6'-Dichlorophenyl)-4(7)-methyl-3-(pivaloxyloxy)indone | 3 (an approximately 50% mortality) | 20/40 | 1 | – | –
23 | Cc1cc(C)c(C2=C(OC(=O)c3c(C)cccc3C)c3ccccc3C2=O)c(C)c1 [3-(2,6-Dimethylbenzoyloxy)-2-(2',4',6'-trimethylphenyl)indone] | 1 | – | 1 | 4/20 | –
24 | Cc1ccc(C(=O)OC2=C(c3c(Cl)cccc3Cl)C(=O)c3ccccc32)cc1 [3-(4-Methylbenzoyloxy)-2-(2',6'-dichlorophenyl)indone] | 5 (100% mortality) | – | 5 (100% mortality) | – | Herbicide (total preemergence rating) [2, 6]: 22/30
25 | CCCCC(CC)C(=O)OC1=C(c2cccc3ccccc23)C(=O)c2ccccc21 (centres unmarked) [3-(2-Ethylhexanoyloxy)-2-(1-Naphthyl)indone] | 1 | – | 1 | 14/20 | –
26 | CC(=O)OC1=C(c2ccccc2Br)C(=O)c2ccccc21 [3-Acetoxy-2-(2'-bromophenyl)indone] | 5 (100% mortality) | 19/40 | 5 (100% mortality) | – | –
27 | CCCCN(CCCC)C(=O)OC1=C(c2c(C)cc(C)cc2C)C(=O)c2ccccc21 [2-(2',4',6'-Trimethylphenyl)-3-(N,N-di(butyl)carbamoyloxy)indone] | 1 | – | 3 (an approximately 50% mortality) | 10/20 | –
28 | CCC(CC)C(=O)OC1=C(c2cc(C)ccc2C)C(=O)c2ccccc21 [2-(2',5'-Dimethylphenyl)-3-(2-ethylbutanoyloxy)indone] | 5 (100% mortality) | – | 3 (an approximately 50% mortality) | 4/20 | –
